Experimental findings from patent US20260297118A1, “SUBSTITUTED PYRIMIDINONE AND AZAPYRIMIDINONE COMPOUNDS, COMPOSITIONS, AND USES THEREOF” (LAKEWOOD AMEDEX, INC., priority 2023, published 2026) are described below.

Type in all cases: cell-based
One assay relates to Escherichia coli (25922). Description: MIC, broth microdilution, Escherichia coli (25922). Particulars: pH 3, Mueller Hinton Broth, 18 to 24 hours. As for the experimental part:
(§1) MIC testing is conducted using the broth (Mueller Hinton Broth) microdilution procedures relevant to each organism group as established by the Clinical and Laboratory Standards Institute (CLSI; 3-7). MIC plates are prepared in accordance with CLSI (3-7). To prepare the test plates, automated liquid handlers are used to conduct serial dilutions and liquid transfers. Automated liquid handlers utilized in this study include the Multidrop 384 (Labsystems, Helsinki, Finland) and the Biomek 2000 (Beckman Coulter, Fullerton CA). The solution is diluted to desired pH using 1 M Citric Acid or 1 M NaOH buffer. A standardized inoculum of each test organism is prepared per CLSI methods (3, 5-7) to equal a 0.5 McFarland standard in the appropriate media followed by an additional 1:20 dilution (1:10 for anaerobes).
(§2) The plates are then inoculated with 10 μL of the diluted 0.5 McFarland suspension using the Biomek 2000 from low to high drug concentration, resulting in a final concentration of approximately 5×10^5 CFU/mL per well. An un-inoculated plate is incubated for the purpose of assessing solubility of the drug in the test media. The plates are stacked 3 to 4 high, covered with a sterile lid on the top plate, and incubated for 18 to 24 hours according to CLSI. The MIC is recorded as the lowest concentration of respective compound that inhibited visible growth of the organism.

The subject of assay [1] is Staphylococcus aureus (43330). In words: MIC, broth microdilution, Staphylococcus aureus (43330). Particulars: pH 3, Mueller Hinton Broth, 18 to 24 hours. The procedure: as §1, §2
Another assay relates to Candida albicans (22972). Description: MIC, broth microdilution, Candida albicans (22972). The conditions noted are these: pH 3, Mueller Hinton Broth, 18 to 24 hours. As for the experimental part: as §1, §2
Assay [2] has as its system Pseudomonas aeruginosa (27853). In words: MIC, broth microdilution, Pseudomonas aeruginosa (27853). Particulars: pH 3, Mueller Hinton Broth, 18 to 24 hours. The procedure: as §1, §2
The test system of a further assay is C. freundii CDC-0157. Description: MIC, broth microdilution, C. freundii CDC-0157. Details: unit not given beside the values. Particulars: C. freundii CDC-0157, Gram −ve; pH 3; 18 to 24 hours. The procedure: as §1, §2
Assay [3] deals with S. dysgalactiae ATCC-6644. In words: MIC, broth microdilution, S. dysgalactiae ATCC-6644. Further details: unit not given beside the values. Particulars: S. dysgalactiae ATCC-6644, Gram +ve; pH 3; 18 to 24 hours. As for the experimental part: as §1, §2
In the next assay the test system is S. pyogenes ATCC-49399. Description: MIC, broth microdilution, S. pyogenes ATCC-49399. Particulars: S. pyogenes ATCC-49399, Gram +ve; pH 3; 18 to 24 hours. Further details: unit not given beside the values. The procedure:
as §1, §2

The test system of a further assay is H. influenzae ATCC-49247. In words: MIC, broth microdilution, H. influenzae ATCC-49247. Further details: unit not given beside the values. Particulars: H. influenzae ATCC-49247, Gram −ve; pH 3; 18 to 24 hours. As for the experimental part: as §1, §2
In a further assay the test system is K. pneumoniae ATCC-43816. Description: MIC, broth microdilution, K. pneumoniae ATCC-43816. Details: unit not given beside the values. The conditions noted are these: K. pneumoniae ATCC-43816, Gram −ve; pH 3; 18 to 24 hours. The procedure: as §1, §2
The next assay concerns E. cloacae ATCC BAA-2468. Description: MIC, broth microdilution, E. cloacae ATCC BAA-2468. Details: unit not given beside the values. Particulars: E. cloacae ATCC BAA-2468, Gram −ve; pH 3; 18 to 24 hours. As for the experimental part:
as §1, §2

The subject of assay [4] is A. radioresistens MMX-8551. Description: MIC, broth microdilution, A. radioresistens MMX-8551. Details: unit not given beside the values. The conditions noted are these: A. radioresistens MMX-8551, Gram −ve; pH 3; 18 to 24 hours. The procedure: as §1, §2
For the next assay, the system named is E. coli MMX-8870. In words: MIC, broth microdilution, E. coli MMX-8870. The conditions noted are these: E. coli MMX-8870, Gram −ve; pH 3; 18 to 24 hours. The procedure: as §1, §2
Another assay has as its system E. faecium ATCC-35667. In words: MIC, broth microdilution, E. faecium ATCC-35667. The conditions noted are these: E. faecium ATCC-35667, Gram +ve; pH 3; 18 to 24 hours. As for the experimental part: as §1, §2
The next assay relates to S. aureus ATCC -3591. In words: MIC, broth microdilution, S. aureus ATCC -3591. Particulars: S. aureus ATCC -3591, Gram +ve; pH 3; 18 to 24 hours. Details: unit not given beside the values. As for the experimental part: as §1, §2
A further assay concerns M. morganii CDC-0519. In words: MIC, broth microdilution, M. morganii CDC-0519. Details: unit not given beside the values. The conditions noted are these: M. morganii CDC-0519, Gram −ve; pH 3; 18 to 24 hours. As for the experimental part:
as §1, §2

Another assay has as its system E. faecalis MMX-3353. Description: MIC, broth microdilution, E. faecalis MMX-3353. The conditions noted are these: E. faecalis MMX-3353, Gram +ve; pH 3; 18 to 24 hours. The procedure:
as §1, §2

The test system of the next assay is S. aureus ATCC-29213. In words: MIC, broth microdilution, S. aureus ATCC-29213. Details: unit not given beside the values. The conditions noted are these: S. aureus ATCC-29213, Gram +ve; pH 3; 18 to 24 hours. As for the experimental part: as §1, §2
Another assay concerns C. striatum ATCC-6940. Description: MIC, broth microdilution, C. striatum ATCC-6940. Particulars: C. striatum ATCC-6940, Gram +ve; pH 3; 18 to 24 hours. The procedure:
as §1, §2

In a further assay the test system is E. faecium MMX-3355. Description: MIC, broth microdilution, E. faecium MMX-3355. Details: unit not given beside the values. Particulars: E. faecium MMX-3355, Gram +ve; pH 3; 18 to 24 hours. As for the experimental part:
as §1, §2

The next assay concerns P. mirabilis CDC-0155. Description: MIC, broth microdilution, P. mirabilis CDC-0155. Further details: unit not given beside the values. The conditions noted are these: P. mirabilis CDC-0155, Gram −ve; pH 3; 18 to 24 hours. As for the experimental part:
as §1, §2

A further assay has as its system A. baumannii ATCC-19606. Description: MIC, broth microdilution, A. baumannii ATCC-19606. Details: unit not given beside the values. The conditions noted are these: A. baumannii ATCC-19606, Gram −ve; pH 3; 18 to 24 hours. As for the experimental part: as §1, §2
The subject of assay [5] is S. saprophyticus ATCC-49907. In words: MIC, broth microdilution, S. saprophyticus ATCC-49907. Further details: unit not given beside the values. Particulars: S. saprophyticus ATCC-49907, Gram +ve; pH 3; 18 to 24 hours. The procedure:
as §1, §2

The next assay relates to E. faecalis ATCC-29212. Description: MIC, broth microdilution, E. faecalis ATCC-29212. Details: unit not given beside the values. The conditions noted are these: E. faecalis ATCC-29212, Gram +ve; pH 3; 18 to 24 hours. As for the experimental part:
as §1, §2

Assay [6] deals with K. pneumoniae ATCC BAA-2146. Description: MIC, broth microdilution, K. pneumoniae ATCC BAA-2146. Further details: unit not given beside the values. The conditions noted are these: K. pneumoniae ATCC BAA-2146, Gram −ve; pH 3; 18 to 24 hours. As for the experimental part:
as §1, §2

For the next assay, the system named is E. coli ATCC-25922. In words: MIC, broth microdilution, E. coli ATCC-25922. The conditions noted are these: E. coli ATCC-25922, Gram −ve; pH 3; 18 to 24 hours. Further details: unit not given beside the values. As for the experimental part:
as §1, §2

In the next assay the test system is P. aeruginosa ATCC-27853. In words: MIC, broth microdilution, P. aeruginosa ATCC-27853. The conditions noted are these: P. aeruginosa ATCC-27853, Gram −ve; pH 3; 18 to 24 hours. Details: unit not given beside the values. As for the experimental part:
as §1, §2

Assay [7] concerns S. haemolyticus ATCC-29970. Description: MIC, broth microdilution, S. haemolyticus ATCC-29970. The conditions noted are these: S. haemolyticus ATCC-29970, Gram +ve; pH 3; 18 to 24 hours. As for the experimental part:
as §1, §2

Another assay relates to S. agalactiae ATCC-13813. Description: MIC, broth microdilution, S. agalactiae ATCC-13813. Details: unit not given beside the values. The conditions noted are these: S. agalactiae ATCC-13813, Gram +ve; pH 3; 18 to 24 hours. The procedure: as §1, §2

Like-named read-outs stand apart in the source and are kept apart here.

Take `CCCCCCCCOP(=O)(O)OC[C@H]1O[C@@H](n2ccc(N)nc2=O)C[C@@H]1O` [LAI-001, ((2R,3S,5R)-5-(4-amino-2-oxopyrimidin-1(2H)-yl)-3-hydroxytetrahydrofuran-2-yl)methyl octyl hydrogen phosphate]: the MIC was 20 mg/mL with Escherichia coli (25922) (read-out: MIC), 20 mg/mL in [1] (read-out: MIC), 20 mg/mL in the assay with Candida albicans (22972) (read-out: MIC) and 20000 µg/mL in assay [2] (read-out: MIC).

Consider `CCCCCCOP(=O)(O)OC[C@H]1O[C@@H](n2ccc(N)nc2=O)C[C@@H]1O` [LAI-002, ((2R,3S,5R)-5-(4-amino-2-oxopyrimidin-1(2H)-yl)-3-hydroxytetrahydrofuran-2-yl)methyl hexyl hydrogen phosphate], for which the MIC in the assay on Escherichia coli (25922) (read-out: MIC) turned out to be 25 mg/mL; in assay [1] (read-out: MIC), 25 mg/mL; with Candida albicans (22972) (read-out: MIC) it was 50 mg/mL; in assay [2] (read-out: MIC) it was 5000 µg/mL.

Take `CC(C)COP(=O)(O)OC[C@H]1O[C@@H](n2ccc(N)nc2=O)C[C@@H]1O` [LAI-003, ((2R,3S,5R)-5-(4-amino-2-oxopyrimidin-1(2H)-yl)-3-hydroxytetrahydrofuran-2-yl)methyl isobutyl hydrogen phosphate]: the MIC in the assay on Escherichia coli (25922) (read-out: MIC) amounted to 20 mg/mL; in assay [1] (read-out: MIC), 20 mg/mL; in the assay with Candida albicans (22972) (read-out: MIC), 20 mg/mL; in [2] (read-out: MIC), 20000 µg/mL.

Consider `CC(C)CCOP(=O)(O)OC[C@H]1O[C@@H](n2ccc(N)nc2=O)C[C@@H]1O` [LAI-004, ((2R,3S,5R)-5-(4-amino-2-oxopyrimidin-1(2H)-yl)-3-hydroxytetrahydrofuran-2-yl)methyl isopentyl hydrogen phosphate], for which the MIC in the assay with Escherichia coli (25922) (read-out: MIC) was 25 mg/mL; in assay [1] (read-out: MIC), 50 mg/mL; in the assay on Candida albicans (22972) (read-out: MIC), 50 mg/mL; in assay [2] (read-out: MIC), 5000 µg/mL.

As for `Nc1ccn([C@H]2C[C@H](O)[C@@H](COP(=O)(O)OCCCC(F)(F)F)O2)c(=O)n1` [LAI-005, ((2R,3S,5R)-5-(4-amino-2-oxopyrimidin-1(2H)-yl)-3-hydroxytetrahydrofuran-2-yl)methyl (4,4,4-trifluorobutyl) hydrogen phosphate], the values for the MIC (in the assay on Escherichia coli (25922) (read-out: MIC); in assay [1] (read-out: MIC); in assay [2] (read-out: MIC)) were 25 mg/mL, 50 mg/mL and 25000 µg/mL, respectively.

As for `CCCCOP(=O)(O)OC[C@@H]1CC[C@H](n2ccc(N)nc2=O)O1` [LAI-007, ((2S,5R)-5-(4-amino-2-oxopyrimidin-1(2H)-yl)tetrahydrofuran-2-yl)methyl butyl hydrogen phosphate], the MIC in the assay with C. freundii CDC-0157 stood at 3.13; in assay [3], 12.50; against S. pyogenes ATCC-49399 it was 3.13; with H. influenzae ATCC-49247, 1.56; in the assay with K. pneumoniae ATCC-43816 it was 12.50; in the assay on Escherichia coli (25922) (read-out: MIC), 25 mg/mL. Also, the MIC was 6.25 with E. cloacae ATCC BAA-2468; 5 mg/mL in [1] (read-out: MIC); 6.25 in [4]; 12.50 against E. coli MMX-8870; 6.25 against E. faecium ATCC-35667; 6.25 with S. aureus ATCC -3591. Moreover, the MIC against M. morganii CDC-0519 stood at 3.13; against E. faecalis MMX-3353, 6.25; against S. aureus ATCC-29213, 6.25; against C. striatum ATCC-6940 it was 1.56; in [2] (read-out: MIC), 5000 µg/mL; in the assay with E. faecium MMX-3355, 6.25. Besides, the MIC in the assay on P. mirabilis CDC-0155 is listed as 3.13; in the assay with A. baumannii ATCC-19606, 6.25; in assay [5] it was 3.13; in the assay with E. faecalis ATCC-29212, 6.25; in assay [6], 6.25; against E. coli ATCC-25922, 6.25. Moreover, the results for the MIC (against P. aeruginosa ATCC-27853; in assay [7]; against S. agalactiae ATCC-13813) were 8.75, 6.25 and 1.56, respectively.

As for `CCCCOP(=O)(O)OC[C@H]1O[C@@H](n2ccc(NC)nc2=O)C[C@@H]1O` [LAI-009, butyl (((2R,3S,5R)-3-hydroxy-5-(4-(N-methylamino)-2-oxopyrimidin-1(2H)-yl)tetrahydrofuran-2-yl)methyl) hydrogen phosphate], the MIC came to 25 mg/mL in the assay with Escherichia coli (25922) (read-out: MIC), 25 mg/mL in [1] (read-out: MIC), 50 mg/mL in the assay with Candida albicans (22972) (read-out: MIC) and 5000 µg/mL in [2] (read-out: MIC).

For the compound “(2R,3S,5R)-5-(4-amino-2-oxopyridizin-1(2H)-yl)-3-hydroxytetrahydrofuran-2-methyl butyl phosphate [LAI-011]”, the MIC in the assay on Escherichia coli (25922) is 25 mg/mL; in assay [1], 25 mg/mL; in the assay with Candida albicans (22972), 5 mg/mL; in assay [2] it was 5000 µg/mL.
